Where two headings read alike, the source gives them in different places.
Experiments:
human PD-L1 protein = biological target: T1, human PD-L1 protein (Homo sapiens, UniProt Q9NZQ7); test: Thermal shift: melting temperature of PD-L1 protein; format: binding; details: for ΔTm at 10 µM: read-out: ΔTm (° C.)
T1 construct: purchased Acro Biosystems PD1-H5229
Description: Test Embodiment 4. Test of Combination of the Compounds of the Present Disclosure to Improve the Stability (Melting Temperature) of PD-L1 Protein Experimental purpose: To test the ability of compounds to enhance the stability of PD-L1 protein and increase the melting temperature of the protein. Experimental method: […] A solution containing […] HEPES, SYPRO Orange, and 150 mM NaCl was prepared as experimental buffer, and human PD-L1 protein was added at a final concentration of 2 μM. […] PCR tube was put into the PCR machine, and the melt curve function was selected to detect the melting temperature of PD-L1 protein in different treatment groups (heated from 25° C. to 95° C., 0.03° C./s). The experimental data file of the PCR instrument was imported into the thermal shift software to obtain the melting temperature (Tm) of each treatment group, and the Tm of the DMSO vehicle control group was subtracted to obtain the change value (ΔTm) of the melting temperature, as shown in the following table: […]

[1] = biological target: T2, PD-L1 protein on the surface of MC38-hPDL1 tumor cells (Homo sapiens, UniProt Q9NZQ7); test: Induction of endocytosis of PD-L1 on the surface of tumor cells (flow cytometry); format: cell-based; details: 16 hours incubation; for Emax: MC38-hPDL1 cells, read-out: MC38 maximum endocytosis rate; for IC50: inducing endocytosis of PD-L1, MC38-hPDL1 cells, read-out: MC38 IC50
T2 construct: expressed in transfected cells; host or cells: MC38-hPDL1 (mouse colon cancer cells)
Summary of the method: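 IC50 comes from nonlinear fits of endocytosis rate, calculated from the loss of surface PE-anti-CD274 flow signal relative to vehicle. Cells were MC38 mouse colon cancer cells engineered to express high human PD-L1. Compound exposure lasted 16 h at 37 °C, 5% CO2.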

[2] = compound 10 μM, PD-L1 protein 2 μM, Tm minus DMSO vehicle control

T2 sequence (Q9NZQ7 19-290): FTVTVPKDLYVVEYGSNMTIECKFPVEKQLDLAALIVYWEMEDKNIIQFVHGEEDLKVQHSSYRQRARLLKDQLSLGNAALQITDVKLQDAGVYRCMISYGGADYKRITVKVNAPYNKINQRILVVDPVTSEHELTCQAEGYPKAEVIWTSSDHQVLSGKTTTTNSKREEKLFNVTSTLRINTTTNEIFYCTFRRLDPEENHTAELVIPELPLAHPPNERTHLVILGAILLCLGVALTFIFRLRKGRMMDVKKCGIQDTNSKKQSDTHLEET
T1 sequence (Q9NZQ7 19-238 limits assumed): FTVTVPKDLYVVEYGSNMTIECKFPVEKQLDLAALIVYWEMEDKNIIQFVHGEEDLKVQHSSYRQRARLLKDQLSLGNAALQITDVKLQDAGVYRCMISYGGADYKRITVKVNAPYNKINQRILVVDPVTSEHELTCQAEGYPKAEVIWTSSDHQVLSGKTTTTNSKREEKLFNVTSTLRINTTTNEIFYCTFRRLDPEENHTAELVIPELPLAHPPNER

| SMILES | ΔTm at 10 µM (human PD-L1 protein; [2]) | Emax [1] | IC50 [1] | ΔTm (° C.) (human PD-L1 protein; [2]) | ΔTm at 10 µM (human PD-L1 protein) |
| --- | --- | --- | --- | --- | --- |
| COc1nc(-c2cccc(-c3cccc(NC(=O)c4nc5c(n4C)CCN(C)C5)c3Cl)c2Cl)ccc1CN1CC2(C1)CN(C(=O)C(F)(F)F)C2 [Embodiment 189, N-(2,2′-Dichloro-3′-(6-methoxy-5-((6-(2,2,2-trifluoroacetyl)-2,6-diazaspiro[3.3]heptan-2-yl)methyl)pyridin-2-yl)-[1,1′-biphenyl]-3-yl)-1,5-dimethyl-4,5,6,7-tetrahydro-1H-imidazo[4,5-c]pyridine-2-carboxamide] | 19.5 °C | 96% |  |  |  |
| COc1nc(-c2cccc(-c3cccc(NC(=O)c4nc5c(n4C)CCN(C)C5)c3Cl)c2Cl)ccc1CN1CCN(C(C)=O)CC1 [Embodiment 203, N-(3′-(5-((4-Acetylpiperazin-1-yl)methyl)-6-methoxypyridin-2-yl)-2,2′-dichloro-[1,1′-biphenyl]-3-yl)-1,5-dimethyl-4,5,6,7-tetrahydro-1H-imidazo[4,5-c]pyridine-2-carboxamide] | 13.5 °C | 95% |  | 10.5 °C |  |
| COC(=O)[C@H](CO)NCc1cnc(-c2cccc(-c3cccc(NC(=O)c4nc5c(n4C)CCN(C)C5)c3Cl)c2Cl)nc1OC [Embodiment 227, Methyl ((2-(2,2′-dichloro-3′-(1,5-dimethyl-4,5,6,7-tetrahydro-1H-imidazo[4,5-c]pyridine-2-carboxamido)-[1,1′-biphenyl]-3-yl)-4-methoxypyrimidin-5-yl)methyl)-L-serinate] | 11.9 °C |  |  |  |  |
| COc1nc(-c2cccc(-c3cccc(NC(=O)c4nc5c(n4C)CCN(C)C5)c3Cl)c2Cl)ccc1CN1CC2CC(C1)N2C(C)=O [Embodiment 206, N-(3′-(5-((6-Acetyl-3,6-diazabicyclo[3.1.1]heptan-3-yl)methyl)-6-methoxypyridin-2-yl)-2,2′-dichloro-[1,1′-biphenyl]-3-yl)-1,5-dimethyl-4,5,6,7-tetrahydro-1H-imidazo[4,5-c]pyridine-2-carboxamide] | 11.6 °C | 90% |  |  |  |
| COc1nc(-c2cccc(-c3cccc(NC(=O)c4nc5c(n4C)CCN(C)C5)c3Cl)c2Cl)ccc1CN1C2CC1CN(C(=O)C(C)C)C2 [Embodiment 210, N-(2,2′-Dichloro-3′-(5-((3-isobutyryl-3,6-diazabicyclo[3.1.1]heptan-6-yl)methyl)-6-methoxypyridin-2-yl)-[1,1′-biphenyl]-3-yl)-1,5-dimethyl-4,5,6,7-tetrahydro-1H-imidazo[4,5-c]pyridine-2-carboxamide] | 10.7 °C | 88% |  |  |  |
| COc1nc(-c2cccc(-c3cccc(NC(=O)c4nc5c(n4C)CCN(C)C5)c3Cl)c2Cl)ccc1CN1CCC(C)(C#N)CC1 [Embodiment 212, N-(2,2′-Dichloro-3′-(5-((4-cyano-4-methylpiperidin-1-yl)methyl)-6-methoxypyridin-2-yl)-[1,1′-biphenyl]-3-yl)-1,5-dimethyl-4,5,6,7-tetrahydro-1H-imidazo[4,5-c]pyridine-2-carboxamide] | 14.9 °C | 94% | 11.6 nM |  |  |
| COc1cc(C(=O)Nc2cccc(-c3cccc(NC(=O)c4nc5c(n4C)CCN(C)C5)c3Cl)c2C)ncc1CNc1cc(C)ncn1 [Embodiment 91, N-(2-Chloro-3′-(4-methoxy-5-(((6-methylpyrimidin-4-yl)amino)methyl)picolinamido)-2′-methyl-[1,1′-biphenyl]-3-yl)-1,5-dimethyl-4,5,6,7-tetrahydro-1H-imidazo[4,5-c]pyridine-2-carboxamide] | 10.3 °C | 81% | 14 nM |  |  |
| COc1nc(-c2cccc(-c3cccc(NC(=O)c4nc5c(n4C)CCN(C)C5)c3Cl)c2Cl)ccc1CN1CCN(C(=O)C2CC2)CC1 [Embodiment 200, N-(2,2′-Dichloro-3′-(5-((4-(cyclopropylcarbonyl)piperazin-1-yl)methyl)-6-methoxypyridin-2-yl)-[1,1′-biphenyl]-3-yl)-1,5-dimethyl-4,5,6,7-tetrahydro-1H-imidazo[4,5-c]pyridine-2-carboxamide] | 12.5 °C | 95% |  |  |  |
| COc1cc(C(=O)Nc2cccc(-c3cccc(NC(=O)c4nc5c(n4C)CCN(C)C5)c3Cl)c2C)ncc1CNc1ccc(C)nc1 [Embodiment 92, N-(2-Chloro-3′-(4-methoxy-5-(((6-methylpyridin-3-yl)amino)methyl)picolinamido)-2′-methyl-[1,1′-biphenyl]-3-yl)-1,5-dimethyl-4,5,6,7-tetrahydro-1H-imidazo[4,5-c]pyridine-2-carboxamide] | 10.5 °C | 83% | 9 nM |  |  |
| COc1nc(-c2cccc(-c3cccc(NC(=O)c4nc5c(n4C)CCN(C)C5)c3Cl)c2Cl)ccc1CN1CCN(C(=O)C(C)C)CC1 [Embodiment 199, N-(2,2′-Dichloro-3′-(5-((4-isobutyrylpiperazin-1-yl)methyl)-6-methoxypyridin-2-yl)-[1,1′-biphenyl]-3-yl)-1,5-dimethyl-4,5,6,7-tetrahydro-1H-imidazo[4,5-c]pyridine-2-carboxamide] | 11.4 °C | 93% |  |  |  |
| COc1nc(-c2cccc(-c3cccc(NC(=O)c4nc5c(n4C)CCN(C)C5)c3Cl)c2Cl)ccc1CN1CC2(C1)CN(C(=O)C1CC1)C2 [Embodiment 187, N-(2,2′-Dichloro-3′-(5-((6-(cyclopropylcarbonyl)-2,6-diazaspiro[3.3]heptan-2-yl)methyl)-6-methoxypyridin-2-yl)-[1,1′-biphenyl]-3-yl)-1,5-dimethyl-4,5,6,7-tetrahydro-1H-imidazo[4,5-c]pyridine-2-carboxamide] | 21.1 °C | 95% | 1.1 nM |  |  |
| COc1nc(-c2cccc(-c3cccc(NC(=O)c4nc5c(n4C)CCN(C)C5)c3Cl)c2Cl)ccc1CN[C@@H]1CCOC[C@@H]1F [Embodiment 115, N-(2,2′-Dichloro-3′-(5-((((3R,4R)-3-fluorotetrahydro-2H-pyran-4-yl)amino)methyl)-6-methoxypyridin-2-yl)-[1,1′-biphenyl]-3-yl)-1,5-dimethyl-4,5,6,7-tetrahydro-1H-imidazo[4,5-c]pyridine-2-carboxamide] |  | 93% | 5.3 nM |  | 12.7 °C |

Second part, led by results:

| ΔTm at 10 µM (human PD-L1 protein; [2]) | Emax [1] | IC50 [1] | ΔTm (° C.) (human PD-L1 protein; [2]) | SMILES | ΔTm at 10 µM (human PD-L1 protein) |
| --- | --- | --- | --- | --- | --- |
| 14.5 °C | 96% | 4.1 nM |  | COc1nc(-c2cccc(-c3cccc(NC(=O)c4nc5c(n4C)CCN(C)C5)c3Cl)c2Cl)ccc1CNCC1(C#N)CC1 [Embodiment 213, N-(2,2′-Dichloro-3′-(5-((((1-cyanocyclopropyl)methyl)amino)methyl)-6-methoxypyridin-2-yl)-[1,1′-biphenyl]-3-yl)-1,5-dimethyl-4,5,6,7-tetrahydro-1H-imidazo[4,5-c]pyridine-2-carboxamide] |  |
| 16.3 °C | 97% |  |  | COc1nc(-c2cccc(-c3cccc(NC(=O)c4nc5c(n4C)CCN(C)C5)c3Cl)c2Cl)ccc1CN1CC(CC#N)C1 [Embodiment 182, N-(2,2′-Dichloro-3′-(5-((3-(cyanomethyl)azetidin-1-yl)methyl)-6-methoxypyridin-2-yl)-[1,1′-biphenyl]-3-yl)-1,5-dimethyl-4,5,6,7-tetrahydro-1H-imidazo[4,5-c]pyridine-2-carboxamide] |  |
| 11.4 °C | 94% |  |  | COc1nc(-c2cccc(-c3cccc(NC(=O)c4nc5c(n4C4CC4)CCN(C)C5)c3Cl)c2Cl)ccc1CN[C@H]1CCOC[C@@H]1O (relative stereo) [Embodiment 244, 1-Cyclopropyl-N-(2,2′-dichloro-3′-(5-(((trans-3-hydroxytetrahydro-2H-pyran-4-yl)amino)methyl)-6-methoxypyridin-2-yl)-[1,1′-biphenyl]-3-yl)-5-methyl-4,5,6,7-tetrahydro-1H-imidazo[4,5-c]pyridine-2-carboxamide] |  |
| 14.6 °C | 95% | 3.1 nM |  | COc1nc(-c2cccc(-c3cccc(NC(=O)c4nc5c(n4C)CCN(C)C5)c3Cl)c2Cl)ccc1CN1CCC(C#N)CC1 [Embodiment 211, N-(2,2′-Dichloro-3′-(5-((4-cyanopiperidin-1-yl)methyl)-6-methoxypyridin-2-yl)-[1,1′-biphenyl]-3-yl)-1,5-dimethyl-4,5,6,7-tetrahydro-1H-imidazo[4,5-c]pyridine-2-carboxamide] |  |
| 10.6 °C | 90% |  |  | CCn1c(C(=O)Nc2cccc(-c3cccc(-c4ccc(CNC5COC5)c(OC)n4)c3Cl)c2Cl)nc2c1CCN(C)C2 [Embodiment 236, N-(2,2′-Dichloro-3′-(6-methoxy-5-((oxetan-3-ylamino)methyl)pyridin-2-yl)-[1,1′-biphenyl]-3-yl)-1-ethyl-5-methyl-4,5,6,7-tetrahydro-1H-imidazo[4,5-c]pyridine-2-carboxamide] |  |
| 12.1 °C | 94% |  |  | CCC(=O)N1CCN(Cc2ccc(-c3cccc(-c4cccc(NC(=O)c5nc6c(n5C)CCN(C)C6)c4Cl)c3Cl)nc2OC)CC1 [Embodiment 201, N-(2,2′-Dichloro-3′-(6-methoxy-5-((4-propionylpiperazin-1-yl)methyl)pyridin-2-yl)-[1,1′-biphenyl]-3-yl)-1,5-dimethyl-4,5,6,7-tetrahydro-1H-imidazo[4,5-c]pyridine-2-carboxamide] |  |
